# Measured values: paper PMC10326281, “Insights into the mechanisms governing P01 scorpion toxin effect against U87 glioblastoma cells oncogenesis” (Frontiers in Pharmacology, 2023)
# Where a SMILES comes first, the peptide text is derived from it. Bridges are numbered along the chain shown (N, C = ends).
# Tested on: U87 glioblastoma cells
# Assay: Cell migration assay (modified Boyden chamber), U87
# Type: cell-based, human
# From the text: The ATCC (American Type Culture Collection, Rockville, MD, United States) cancer cell lines U87 (glioblastoma), MDA-MB231 (breast cancer) and LS174 (colon adenocarcinoma) were routinely cultured in DMEM supplemented with 10% fœtal bovine serum (FBS), 1% l-glutamine and 100 IU/mL penicillin/streptomycin. […] Rat SK2 cDNA cloned into pJA5 plasmid was a gift from Dr. Skolnik (university Langone Medical center, New York). Human SK3 cDNA cloned into Pipru vector was a king gift from Pr. Soriani (Université Côte d’Azur, CNRS, Inserm, Nice, France).
# Cell migration assay was performed using modified Boyden chamber (NeuroProbe Inc., Bethesda, MD, United States) as previously described ([Sarray et al., 2007]). Membranes were coated with fibrinogen (Fg) (50 μg/mL), fibronectin (Fn) (10 μg/mL), collagen type I (Coll-I) (50 μg/mL) for U87, MDA-MB231 and LS174 cells respectively, for 2 h at 37°C. Cells were harvested as a single cell suspension (10^6 cells/mL) and treated with P01 at 50 μg/mL. Then added to pre-coated membranes and allowed to migrate for 5 h at 37°C in Boyden chamber. Cells were fixed on the underside of the membrane, stained by 0.1% crystal violet and migration was quantified by measuring the absorbance at 560 nm using a spectrophotometer (Thermo-Multiskan EX, Shanghai, China).
compound,measurement,setting,value
"CC[C@H](C)[C@H](NC(=O)[C@@H]1CCCN1C(=O)[C@H](CCC(=O)O)NC(=O)[C@@H]1CSSC[C@@H]2NC(=O)[C@H](Cc3c[nH]cn3)NC(=O)[C@H](CCC(=O)O)NC(=O)[C@@H]3CCCN3C(=O)[C@@H]3CSSC[C@H](NC(=O)[C@H](CCCCN)NC(=O)[C@H](CC(=O)O)NC(=O)[C@H](CC(N)=O)NC(=O)[C@H](CC(=O)O)NC(=O)[C@H](CSSC[C@H](NC(=O)[C@H](CO)NC(=O)[C@@H](N)C(C)C)C(=O)N[C@@H](CCC(=O)O)C(=O)N[C@@H](CC(=O)O)C(=O)N3)NC(=O)[C@H](CCCCN)NC(=O)[C@H](C)NC(=O)[C@H](CCC(N)=O)NC(=O)[C@H](C)NC(=O)[C@H](CCCCN)NC(=O)[C@H](CCC(N)=O)NC(=O)[C@H]([C@@H](C)O)NC(=O)[C@H](CO)NC2=O)C(=O)N[C@@H](C(C)C)C(=O)N1)C(=O)O [P01] (H-VSCEDCPEHCSTQKAQAKCDNDKCVCEPI-OH; disulfide 3-19, 6-24, 10-26 (inferred); N-terminus and C-terminus assumed)",inhibition of migration,"50 μg/mL, 5 h at 37°C, fibrinogen 50 μg/mL coating, n = 3",48%
same,IC50 (migration),"Boyden chamber, 5 h",50 µg/mL
